Test results as given in patent US20080118437A1, “Diagnosis and treatment O prostate cancer” (Regents of the University of Michigan, priority 2006, published 2008).

Tests used:
VCaP cells [1] = test: Fluorescence-based migration assay toward hrMCP-1; type: cell-based, human; conditions: for VCaP cell migration, mean fluoresence±SD: 24 hours
Procedure: (§1) Flouresence-based Migration Assay—Cell migration was assessed using the Innocyte Cell Migration Assay (Calbiochem, Inc.) following the manufacturer's instructions. Briefly, increasing concentrations of MCP-1 (1-100 ng/mL) in the presence and absence of CCR2 inhibitors or neutralizing antibodies were added to the lower chamber of a 96 well plate. Cells were harvested by 0.5 μM EDTA release and resuspended at 2.5×10^5 cells/mL in serum free media. 2.5×10^4 cells were added to the upper chamber and allowed to migrate through the membrane with 8 μm pores for 24 hours at 37° C. and 5% CO2 atmosphere. Cells that migrated through the membrane were detached and labeled with Calcein AM and fluorescence was measured using fluorescent plate reader with excitation wavelength of 485 nm and emission wavelength of 520 nm. The experiments were repeated twice and each conditioned was performed in quadruplicate in each experiment.

PC-3 cells [2] = test: Fluorescence-based migration assay toward hrMCP-1; type: cell-based, human; conditions: for PC-3 cell migration, mean fluoresence±SD: 24 hours
Procedure: as §1

PC-3 cells [3] = test: Immunofluorescence of actin rearrangement and lamellipodial formation; type: cell-based, human
Procedure: Immunofluorescence-PC-3 cells were plated on glass coverslips and serum starved for 2 hours prior to stimulation. Cells were stimulated with MCP-1 (100 ng/mL) for 30 min in the presence or absence of identified inhibitors. Stimulation with SDF-1 (200 ng/mL) for 30 min was used as a positive control. Cells were fixed in 3.7% paraformaldehyde, methanol-free for 10 min at room temperature then permeablized with 0.5% Triton X-100 for 5 min at room temperature. Cells were rinsed twice with PBS and incubated for 30 minutes at room temperature with 3% bovine serum albumin (BSA) in PBS+0.05% Tween 20 to prepare cells for staining. Cells were incubated with Phalloidin AlexaFluor S68 (Molecular Probes, Inc.) at a 1:40 dilution in BSA solution to label actin. Cells were washed and mounted on coverslips with Pro-Long Antifade containing DAPI (Molecular Probes, Inc.) following manufacturer's instructions. Immunofluoresence was visualized using a multi-photon laser scanning microscope (MPLSM), consisting of a Mai Tai Broadband Ti:Sapphire laser, tuneable between 710-990 nm and a modified Olympus Fluoview 300 confocal microscope with long working distance water immersion IR objectives. Images were captured with a 60× objective (zoom ×2), 800 nm excitation wavelength, 605 nm and 520 nm centered emmission filters.

PC-3Luc cells [4] = test: Bioluminescent in vivo model of metastasis (Example 4, antibodies and/or docetaxel); set-up: species or system male SCID mice
Procedure: Bioluminescent imaging of PC-3Luc was preformed as previously described through The University of Michigan Small Animal Imaging Resource facility (MSAIR) (Loberg et al., 2006. Neoplasia. 8:578-586). Briefly, PC-3Luc cells were introduced into male SCID mice (5-6 wks of age) by intracardiac injections. Mice were serially imaged weekly for up to 12 weeks using a CCD IVIS system using a 50 mm lens (Xenogen Corp, Alameda, Calif.) and the results were analyzed using LIVING IMAGE software (Xenogen Corp.). Mice were separated into groups and treatment began at week 2 post-intracardiac injection and mice received 2 mg/Kg antibody twice weekly by intraperitoneal (i.p.) injection (for up to eight weeks) and/or 40 mg/Kg Taxotere i.p. injection once per week for three weeks. Mice were injected with luciferin (40 mg/mL) intraperitoneally and ventral images were acquired 15 min postinjection under 1.75% isofluorane/air anesthesia. Total tumor burden of each animal was calculated using regions of interest (ROIs) that encompassed the entire animal. Animals were sacrificed after week 6 image and individual organs were harvested and immediately placed in formalin.

[5] = in vivo; cited from earlier work
[6] = system: HBME, HAEC and HDVMEC cells; test: CCL2 synthesis by endothelial cells stimulated with PTHrP; type: cell-based, human; conditions: PTHrP 10 nM
Procedure: To determine the role of CCL2 in the development of prostate cancer-bone metastasis the level of CCL2 was analyzed by ELISA. […]

[7] = system: primary mouse calvaria osteoblasts; test: CCL2 ELISA of primary osteoblasts stimulated with PTHrP; type: cell-based; conditions: maximal response at 2 hours post-stimulation
Procedure: Primary mouse calvarial cells were isolated as previously described. Briefly, calvaria of newborn mice at day 4 were dissected, isolated, and subjected to sequential digestions in collagenase A (2 mg/ml) and 0.25% trypsin for 20, 40, and 90 minutes. Cells from the third digest were washed, counted, and plated in αMEM with 10% FBS containing 100 U/ml of penicillin and streptomycin. Primary cultures were used without passage. For differentiation, both MC-4 and primary cells were induced to differentiate and form mineralized matrix with the addition of ascorbic acid (50 μg/ml) and β-glycerophosphate (10 mM) with media replacement (every 2 days). In proliferation phase, MC-4 cells were serum staved for 24 h before addition of PTHrP or vehicle for indicated time. Otherwise, cells were treated with PTHrP or vehicle for indicated time without serum starvation.
A mouse CCL2 specific ELISA kit was purchased from BD Biosciences (San Diego, Calif.) to measure the protein level of CCL2 in cell culture media. Assays were performed as recommended by the manufacturer to determine levels of secreted CCL2 in MC-4 or primary cell culture media. Values were calculated from standard curves set up for each assay. The data are based on a triplicate experiments performed independently. Data are shown as mean +SEM in the figures.

[8] = system: MC3T3-E1 subclone 4 (MC-4) OB cells; test: CCL2 ELISA of osteoblast cells stimulated with PTHrP; type: cell-based, mouse; conditions: PTHrP 10 nM; day 7 and day 14 after induced differentiation
Procedure: VCaP cells were obtained from a lumbar vertebral metastatic lesion through the Rapid Autopsy program at the University of Michigan (Korenchuk et al., 2001; 2: 163-168; Loberg et al., Urol. One. 2006; 24:161-168). Cells were cultured in Dulbecco's Modified Eagle Medium supplemented with 10% Fetal Bovine Serum and 1% antibiotic/antimicotic and incubated at 37° C. PC3 prostate cancer cells were obtained from the American Type Culture Collection (Manassas, Va.). Cells were cultured in RPMI-1640 with L-Glutamine (Cambrex Bioproducts) and supplemented with 10% Fetal Bovine Serum and 1% antibiotic/antimicotic. Cells were incubated at 37° C. and subcultured according to ATCC specifications. MC3T3-E1 subclone 4 cells (MC-4) with high osteoblast differentiation potential were maintained and passaged every 4-5 days as previously described. Briefly, cells were grown in AMEM (Gibco) containing 100 units/ml penicillin and streptomycin and 10% FBS. MC3T3 cells were plated at 40,000-50,000 cells/cm2, and differentiation was induced with the addition of ascorbic acid (50 μg/ml) for 7 days. The culture medium was changed at days 1, 3, 5, and 7. […]
A mouse CCL2 specific ELISA kit was purchased from BD Biosciences (San Diego, Calif.) to measure the protein level of CCL2 in cell culture media. […] Values were calculated from standard curves set up for each assay. […]

VCaP cells [9] = test: WST-1 proliferation assay with MCP-1 with or without LY294002; type: cell-based, human; conditions: increasing concentrations, 24-96 hours
Procedure: (§2) Proliferation Assay-Cells were seeded at a density of 4×10^3 cells/well in a six well plate in regular media. Twenty four hours after seeding the media was changed with serum free media with increasing concentrations of MCP-1(1-100 ng/mL) in the presence of absence of LY294002 (1 μM). Cell growth was determined at 24, 48, 72, and 96 hours after seeding using the WST-1 assay (Pierce Biotech) following the manufacturer's instructions.

PC-3 cells [10] = test: as above; type: cell-based, human; conditions: increasing concentrations, 24-96 hours
Procedure: as §2

VCaP cells [11] = test: Western blot of MCP-1 induced signaling; type: cell-based, human; conditions: MCP-1 100 ng/mL, time dependent, maximal at 30 min; dose-dependent 0.1-100 ng/mL
Procedure: (§3) Western Blot-Cells were lysed in RIPA buffer (50 mM Tris-HCl, pH 7.4, 1% NP-40, 150 mM NaCl, 1 mM EDTA, 1 mM PMSF, 1 mM Na3VO4, 1 mM NaF, 1 uM okadaic acid and 1 ug/mL aprotinin, leupeptin and pepstatin). Proteins were separated under reducing conditions by SDS-PAGE and transferred onto nitrocellulose membrane. The membranes were blocked with 5% milk in TBST (0.1% Tween in TBS) for 1 hour at room temperature. They were incubated overnight at 4° C. with primary antibodies. Membranes were washed 3 times prior to incubation with HRP-conjugated secondary antibodies (Cell Signaling, Beverly, Mass.) for 1 hour at room temperature. Protein expression was visualized by ECL chemiluminescent (Promega, Madison, Wis.) and quantitated using Image J software (NCl, Bethesda, Md.).

PC-3 cells [12] = test: Western blot of MCP-1 induced signaling; type: cell-based, human; conditions: MCP-1 100 ng/mL
Procedure: as §3

LNCaP cells = test: WST-1 proliferation assay with MCP-1; type: cell-based, human; conditions: compared to vehicle treated controls
Procedure: as §2

PC-3Luc cells [13] = test: WST-1 proliferation assay with hrCCL2 and anti-CCL2 antibodies; type: cell-based, human; conditions: 72 hours, antibodies 30 μg/mL
Procedure: Cells were seeded at a density of 1×10^5 cells/ml for PC-3Luc cells in a 96 well plate in RPMI+10% FBS (FCS is mentioned in previous section). Twenty-four hours after seeding, media was changed to either serum-free RPMI or RPMI+10% FBS. Cell growth was determined 72 hours later using the WST-1 assay (Pierce Biotech, Inc.) following the manufacturer's instructions.

Q: Which “effect on MCP-1 induced dose dependent migration of VCaP cells” value (VCaP cells [1]; MCP-1 1-100 ng/mL) does the source give for O=C1Nc2ccccc2C2(CCN(CCc3ccc(C(F)(F)F)cc3)CC2)O1 [RS-102895] here?
A: The value was “attenuated”.

Q: What about the “effect on MCP-1 induced dose dependent migration of PC-3 cells” value (PC-3 cells [2]; MCP-1 1-100 ng/mL) of the same compound?
A: Its value is “attenuated”.

Q: And the “effect on MCP-1 induced actin rearrangement and lamellipodial formation” value (PC-3 cells [3]; co-incubation with MCP-1 100 ng/mL, RS-102895 1 μM)?
A: The value was “did not prevent actin rearrangement and lamellipodial formation”.

Q: With CC(=O)O[C@@]12CO[C@@H]1C[C@H](O)[C@@]1(C)C(=O)[C@H](O)C3=C(C)[C@@H](OC(=O)[C@H](O)[C@@H](NC(=O)OC(C)(C)C)c4ccccc4)C[C@@](O)([C@@H](OC(=O)c4ccccc4)[C@H]21)C3(C)C [docetaxel, (2R,3S)-N-carboxy-3-phenylisoserine, N-tert-butyl ester, 13-ester with 5b-20-epoxy-12a,4,7b,10b,13a-hexahydroxytax-11-en-9-one 4-acetate 2-benzoate, trihydrate] as the compound, how does the “animals of group counted at Wk 6 (tumor regression, Table 2)” value (PC-3Luc cells [4]; Wk 6 = First week after cessation of Taxotere) read?
A: Its value is 2 of 9.

Q: And the “animals of group counted at Wk 9 (tumor regression, Table 2)” value (PC-3Luc cells [4]; Wk 9 = First week after cessation of Antibodies)?
A: The value was 1 of 9.

Q: And the “total tumor burden at Day 35” value (PC-3Luc cells [4]; antibodies 2 mg/Kg i.p. twice weekly, docetaxel 40 mg/Kg i.p.)?
A: Its value is 3.19 % of PBS-treated animals.

Q: And the “tumor burden during and after therapy (docetaxel, combination, antibody maintenance)” value (PC-3Luc cells [4]; docetaxel 40 mg/Kg i.p. qw for 3 weeks, antibodies 2 mg/Kg i.p. twice weekly until week 8)?
A: Its value is “decrease in tumor burden while receiving therapy”.

Q: Which results are given for “VEGF TRAPR1R2: VEGF TRAP Fc fusion protein (Holash et al.)”?
A: AUC [5]: 36.28 µg·days/mL; Cmax [5]: 16000 ng/mL

Q: For “PTHrP: Human Parathyroid hormone related protein (PTHrP)-(1-34) from Bachem”, which “synthesis of CCL2” value [6] is on record?
A: The value was “increased their respective synthesis of CCL2”.

Q: What about the CCL2 expression [7] of the same compound?
A: Its CCL2 expression is “increased CCL2 expression”.

Q: What about the CCL2 expression [8] of the same compound?
A: The CCL2 expression was “rapidly increased within 2 hours”.

Q: Which results are given for “hrMCP-1: Human recombinant MCP-1 (CC chemokine ligand 2) from Chemicon International”?
A: proliferation in response to MCP-1 (VCaP cells [9]): enhanced proliferation; proliferation in response to MCP-1 (PC-3 cells [10]): enhanced proliferation; VCaP cell migration, mean fluoresence±SD (VCaP cells [1]; hrMCP-1 1 ng/mL): 130.6±2.145; VCaP cell migration, mean fluoresence±SD (VCaP cells [1]; hrMCP-1 10 ng/mL): 176.1±9.051; VCaP cell migration, mean fluoresence±SD (VCaP cells [1]; hrMCP-1 100 ng/mL): 296.5±2.681; PC-3 cell migration, mean fluoresence±SD (PC-3 cells [2]; hrMCP-1 1 ng/mL): 83.53±2.981; PC-3 cell migration, mean fluoresence±SD (PC-3 cells [2]; hrMCP-1 10 ng/mL): 142.2±2.678; PC-3 cell migration, mean fluoresence±SD (PC-3 cells [2]; hrMCP-1 100 ng/mL): 248.1±0.761; Akt phosphorylation by immunoblot (VCaP cells [11]): induced Akt phosphorylation; GSK3α/β phosphorylation (PC-3 cells [12]): no effect; p70 S6 kinase phosphorylation (PC-3 cells [12]): induced p70 S6 kinase phosphorylation; Akt phosphorylation by immunoblot (PC-3 cells [12]; time dependent, maximal at 30 min, dose-dependent 0.1-100 ng/mL): induced Akt phosphorylation; actin cytoskeleton: finger-like projections and lamellipodia (PC-3 cells [3]; MCP-1 100 ng/mL, 30 min, compared to control cells): increased formation; proliferation in response to MCP-1 (LNCaP cells): no effect; cell viability (WST-1) as a measure of proliferation, mean ±SD (PC-3Luc cells [13]; CCL2 10 ng/mL): 136.2±7.81; cell viability (WST-1) as a measure of proliferation, mean ±SD (PC-3Luc cells [13]; CCL2 100 ng/mL): 168.15±5.44
